# Reference: US12083105B2, “Compositions and methods for treating adult-onset neuronal ceroid lipofuscinosis (Kufs disease)” (CORNELL UNIVERSITY, priority 2020, dated 2024)
# How the values were obtained:
# Assay type in all cases: cell-based, mice
# [1] = tested on: CSPα^L115R and CSPα^L116Δ; assay: CSPα oligomerization and palmitoylation in CSPα−/− primary cortical neurons expressing ANCL mutants (SDS-PAGE, quantitative immunoblotting); details: 200 μM, 72 h, FIG. 3D; for oligomerization of CSPα^L115R and CSPα^L116Δ: vs vehicle (0.1% DMSO); for palmitoylation of CSPα^L115R and CSPα^L116Δ: vs vehicle
# synaptic SNARE-complex = assay: SNARE-complex assembly in primary neurons (Syb-2 immunoprecipitation, co-IP of Synt-1 and SNAP-25); details: CSPα^L115R and CSPα^L116Δ expressing neurons; 200 μM, 72 h; compared to vehicle only; FIG. 3E
# Source text: For the experiments shown in FIGS. 3A-3E, primary cortical neurons from neonatal CSPα^−/− mice were infected with lentiviruses expressing Myc-tagged CSPα^WT, CSPα^L115R, CSPα^L116Δ, SSPα, or empty lentivirus (Control) on 7 days in vitro (DIV) and examined on 17 DIV. […] The lentivirus infected cells were stained using antibodies against Myc (green), somatodendritic marker MAP2 (red), and counterstained with nuclear stain DAPI (blue). […] Immunoprecipitation (IP) for SNAP-25 was followed by quantitative immunoblotting of the co-immunoprecipitated (co-IP'd) CSPα (top blot), and normalized to the IP'd SNAP-25 (bottom blot). IP: Control=sham IP without IgG. Palm=palmitoylated. […] N.D.=not detected. […] Immunoprecipitation using anti-synaptobrevin-2 (Syb-2) antibody was followed by quantitative immunoblotting of co-IP'd SNARE-complex partners syntaxin-1 (Synt-1) and SNAP-25. […] Cell extracts were separated by SDS-PAGE, and subjected to quantitative immunoblotting using anti-SNAP-25 antibody and β-actin for normalization. To measure palmitoylation, oligomers were disrupted by lysing neurons in 0.1 N HCl plus 0.1% Triton X-100 for 20 min at 4° C., followed by SDS-PAGE and quantitative immunoblotting against CSPα. […] FIG. 3D (right panel) show quantitation of oligomers, palmitoylated CSPα, respectively, in corresponding lane and expressed as a percentage of total. […]
# SNAP-25 = SNAP-25 levels in total lysate of CSPα−/− primary cortical neurons (quantitative immunoblotting, β-actin normalization); details: 200 μM, 72 h, FIG. 3D; for augmentation of SNAP-25 levels: neurons expressing CSPα^L115R and CSPα^L116Δ; for SNAP-25 levels: neurons expressing CSPα^WT or SSPα
# Source text: For the experiments shown in FIGS. 3A-3E, primary cortical neurons from neonatal CSPα^−/− mice were infected with lentiviruses expressing Myc-tagged CSPα^WT, CSPα^L115R, CSPα^L116Δ, SSPα, or empty lentivirus (Control) on 7 days in vitro (DIV) and examined on 17 DIV. […] The lentivirus infected cells were stained using antibodies against Myc (green), somatodendritic marker MAP2 (red), and counterstained with nuclear stain DAPI (blue). […] Immunoprecipitation (IP) for SNAP-25 was followed by quantitative immunoblotting of the co-immunoprecipitated (co-IP'd) CSPα (top blot), and normalized to the IP'd SNAP-25 (bottom blot). IP: Control=sham IP without IgG. Palm=palmitoylated. […] The mutant CSPα signal was normalized to the amount of immunoprecipitated wilt type CSPα. N.D.=not detected. Representative data from of n=4 shown. […] Immunoprecipitation using anti-synaptobrevin-2 (Syb-2) antibody was followed by quantitative immunoblotting of co-IP'd SNARE-complex partners syntaxin-1 (Synt-1) and SNAP-25. IP: Control=sham IP with plain rabbit serum. […] The Synt-1 signal was normalized to the amount of each normalized to the IP'd Syb-2. Representative data from of n=4 shown. […] The SNAP-25 signal was normalized to the amount of each normalized to the IP'd Syb-2. For the experiments shown in FIGS. 3D-3E, CSPα^−/− primary cortical neurons were lentivirally infected to express Myc-tagged CSPα^WT, CSPα^L115R, CSPα^L116Δ, SSPα, or empty lentivirus (Control) on 5 DIV, and were treated on 12 DIV with vehicle (-=0.1% DMSO), or iron chelators deferiprone (L1=200 μM) and deferoxamine (Dfx=200 μM) for 72 h. […] Cell extracts were separated by SDS-PAGE, and subjected to quantitative immunoblotting using anti-SNAP-25 antibody and β-actin for normalization. To measure palmitoylation, oligomers were disrupted by lysing neurons in 0.1 N HCl plus 0.1% Triton X-100 for 20 min at 4° C., followed by SDS-PAGE and quantitative immunoblotting against CSPα. Representative immunoblots are shown. […] FIG. 3D (right panel) show quantitation of oligomers, palmitoylated CSPα, respectively, in corresponding lane and expressed as a percentage of total. […] Cell extracts were immunoprecipitated using a negative control or anti-Syb-2 antibody, followed by quantitative immunoblotting of the co-IP'd t-SNAREs SNAP-25 and Synt-1. […] In FIGS. 3B-3E data represent means±SEM. *P<0.05; **P<0.01; ***P<0.001; ****P<0.0001 by two-tailed Student's t-test. #P<0.05 by Mann-Whitney-Wilcoxon U test. n.s.=not significant; n.d.=not detected. […]
# For SDS-PAGE, 10-15% Laemmli gels (10.3% T and 3.3% C) were used to separate proteins on Bio-Rad apparati. […] Immunoblots were washed 5× with TBS-T and dried, then scanned on Odyssey CLx (LI-COR) and quantified using Image-Studio software (LI-COR). […]
Structure (SMILES),oligomerization of CSPα^L115R and CSPα^L116Δ [1],palmitoylation of CSPα^L115R and CSPα^L116Δ [1],level of co-immunoprecipitated Synt-1 and SNAP-25 (SNARE-complex assembly) (synaptic SNARE-complex),augmentation of SNAP-25 levels (SNAP-25),SNAP-25 levels (SNAP-25)
"CC(=O)N(O)CCCCCNC(=O)CCC(=O)N(O)CCCCCNC(=O)CCC(=O)N(O)CCCCCN [Dfx, N′-[5-(Acetyl-hydroxy-amino)pentyl]-N-[5-[3-(5-aminopentyl-hydroxy-carbamoyl)propanoylamino]pentyl]-N-hydroxy-butane diamide]",reduced the oligomerization,improved,increased level,approximately two-fold,neither L1 nor Dfx affected SNAP-25 levels
"Cc1c(O)c(=O)ccn1C [L1, 3-hydroxy-1,2-dimethyl-4(1H)-pyridone]",reduced the oligomerization,improved,increased level,approximately two-fold,neither L1 nor Dfx affected SNAP-25 levels
